Earlier results in patent publication US9459187B2, “Blood collection device containing lysophospholipase inhibitor” (Becton, Dickinson and Company, priority 2011, dated 2016).

What was measured:
[1] = biological target: acetylcholinesterase (AChE) (Homo sapiens, UniProt P22303); settings: read-out: Ki for AChE
Sequence of acetylcholinesterase (AChE) (P22303 32-614, species assumed): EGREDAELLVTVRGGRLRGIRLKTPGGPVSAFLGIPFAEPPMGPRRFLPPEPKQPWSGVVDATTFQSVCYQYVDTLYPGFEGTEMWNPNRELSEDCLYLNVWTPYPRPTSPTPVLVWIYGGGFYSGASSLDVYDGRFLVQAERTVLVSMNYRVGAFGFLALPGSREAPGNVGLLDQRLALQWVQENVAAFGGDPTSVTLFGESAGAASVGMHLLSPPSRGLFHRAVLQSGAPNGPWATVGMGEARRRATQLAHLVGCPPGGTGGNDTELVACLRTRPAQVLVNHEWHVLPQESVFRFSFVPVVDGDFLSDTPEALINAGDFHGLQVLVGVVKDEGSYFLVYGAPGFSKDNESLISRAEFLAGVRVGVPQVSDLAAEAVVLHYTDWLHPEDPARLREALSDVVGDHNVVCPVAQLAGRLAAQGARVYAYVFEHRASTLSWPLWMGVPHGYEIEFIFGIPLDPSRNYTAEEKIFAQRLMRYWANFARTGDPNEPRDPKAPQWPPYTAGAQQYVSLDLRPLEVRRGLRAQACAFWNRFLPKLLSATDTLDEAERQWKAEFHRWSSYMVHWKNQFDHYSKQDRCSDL

Compound | half-life in circulation | Ki [1]
GIP(1-42) | about 5 minutes | –
ghrelin: 28-amino acid peptide having the sequence NH2-GSSFLSPEHQRVQQRKESKKPPAKLQPR-COOH (H-GSSFLSPEHQRVQQRKESKKPPAKLQPR-OH; ends and bridges not checked) | about 30 minutes | –
glucagon: 29-amino acid peptide involved in carbohydrate metabolism | 8 to 18 min | –
CCC1=CC2Cc3nc4cc(Cl)ccc4c(N)c3[C@H](C1)C2 [Huprine X, (1S)-7-chloro-15-ethyl-10-azatetracyclo[11.3.1.0^{2,11}.0^{4,9}]heptadeca-2(11),3,5,7,9,14-hexaen-3-amine] | – | 26 pM
